Test results: patent US9925153B2, “Therapeutic agents for skin diseases and conditions” (STC.UNM, priority 2013, dated 2018)
Entries after “also recorded” stand apart in the source; their conditions may differ. Like-named read-outs stand apart in the source and are kept apart here.

Tests used:
[1] = test system: NF-κB; assay: Inhibition of TNFα-induced activation of NF-κB, 293T/NF-κB-luc luciferase reporter cells; assay type: cell-based, human; settings: for Activity as inhibitor of TNFα-induced activation of NF-κB in the screen, in words: screened at 15 μM, compared to resveratrol; for IC50: Homo sapiens, HEK-293T
Method: The cells were maintained in Dulbecco's Modified Eagle's Medium (DMEM—high glucose containing 4 mM glutamine) supplemented with 10% fetal bovine serum (FBS), 1 mM sodium pyruvate, 100 units/ml penicillin, 100 μg/ml streptomycin and 100 μg/ml hygromycin (Gibco/Invitrogen, Carlsbad, Calif.) to maintain cell selection. […] The following day cells were fed fresh media 1 hour prior to treatment. […] Plate wells were gently washed with phosphate buffered saline, pH 7.4, and lysed with 1× passive lysis buffer (Promega, Madison, Wis.). The subsequent lysates were analyzed with the Luciferase Assay System (Promega) utilizing a TD-20/20 luminometer (Turner Designs, Sunnyvale, Calif.). The firefly luciferase relative light units were normalized to protein (mg/ml) with BCA™ Protein Assay Kit (Pierce, Rockford, Ill.) and standardized to percent of control (TNFα control).

[2] = test system: COX-2 mRNA; assay: Inhibition of LPS-induced COX-2 mRNA expression in BV-2 microglial cells (qRT-PCR); assay type: cell-based, mouse; settings: BV-2 cells, LPS 0.2 μg/ml, 24 hours; for Inhibition of LPS-induced COX-2 mRNA, in words: 0.15 μM
[3] = FRAP anti-oxidant assay (reduction of ferric tripyridyltriazine complex)
Source text: (§1) The total radical-trapping anti-oxidant parameter assay (TRAP assay) measures the ability of an analog to react with the pre-formed radical monocation of 2,2′-azinobis-(3-ethylbenzothiazoline-6-sulfonic acid) (ABTS.^+). The ferric reducing/anti-oxidant power assay (FRAP assay) measures the ability of an analog to reduce a ferric tripyridyltriazine complex.
(§2) In both colorimetric assays, the vitamin E analog Trolox was used as a control.
(§3) The anti-oxidant activities of certain stilbene analogs according to the present invention were determined using two standard assays. See, Schlesier, et al., Free Rad Res. 2002; 36:177-187. The total radical-trapping anti-oxidant parameter assay (TRAP assay) measures the ability of an analog to react with the pre-formed radical monocation of 2,2′-azinobis-(3-ethylbenzothiazoline-6-sulfonic acid) (ABTS.^+). See, Re, et al., Free Rad Biol Med, 26:1231-1237 (1999). […] The activities of curcumin and analogs were determined by their abilities to quench the color of the radical cation. […] The ferric complex of 2,4,6-tripyridyl-s-triazine was prepared at acidic pH, and the anti-oxidant activities of curcumin and analogs were determined by their abilities to reduce the ferric complex to the ferrous complex, monitored by formation of the ferrous complex at 593 nm. […]

[4] = TRAP anti-oxidant assay (quenching of ABTS radical cation)
Source text: as §1, §2, §3

[5] = test system: AP-1; assay: Inhibition of TPA-induced activation of AP-1, 293T/AP-1-luc luciferase reporter cells; assay type: cell-based, human; settings: for IC50: Homo sapiens
Method: An AP-1 reporter stable cell line derived from human 293T embryonic kidney cells transfected with a luciferase reporter construct containing three AP-1 binding sites in the promoter (293T/AP-1-luc, Panomics, Inc., Redwood City, Calif.) was grown in a humidified atmosphere at 37° C. in 5% CO2/95% air. The cells were maintained in Dulbecco's Modified Eagle's Medium (DMEM—high glucose containing 4 mM glutamine) supplemented with 10% fetal bovine serum (FBS), 1 mM sodium pyruvate, 100 units/ml penicillin, 100 μg/ml streptomycin and 100 μg/ml hygromycin (Gibco/Invitrogen, Carlsbad, Calif.) to maintain cell selection. One day prior to treatment, the 293T/AP-1-luc cells were plated into 24-well cell culture plates (Costar, Cambridge, Mass.) in the above media without hygromycin. The following day, the cells, which were at approximately 60% confluency, were fed fresh media with or without TPA, 10 ng/ml, (Calbiochem) and immediately treated with curcumin or analog prepared in DMSO stock solutions. The cells were placed again in a humidified atmosphere at 37° C. in 5% CO2/95% air for 24 hours. Plate wells were gently washed with phosphate buffered saline, pH 7.4, and lysed with Ix passive lysis buffer (Promega, Madison, Wis.). The subsequent lysates were analyzed with the Luciferase Assay System (Promega) utilizing a TD-20/20 luminometer (Turner Designs, Sunnyvale, Calif.). The firefly luciferase relative light units were normalized to protein (mg/ml) with BCA Protein Assay Kit (Pierce, Rockford, Ill.) and standardized to percent of control (TPA control).

[6] = transgenic model of Alzheimer's disease (ref. 10); cited from earlier work
[7] = Treatment of cats with inflammatory skin conditions with LD55; assay type: in vivo, cat; settings: for outcome: Feline
Source text: (§4) Table 3 summarizes the results from consecutive treatment with LD55 of dogs and cats with inflammatory skin conditions, where LD55 was applied as a 1% lotion.

[8] = Treatment of dogs with inflammatory skin conditions with LD55; assay type: in vivo, dog
Source text: as §4

[9] = test system: NF-κB; settings: literature (ref. 35); cited from earlier work
[10] = 7 h, 293T/NF-κB-luc cells, TNFα 20 ng/ml, 7 hours, triplicate, read-out: IC50 for inhibition of the TNFα-induced activation of NFκB

Compound: COc1ccc(/C=C/c2ccccc2)cc1 [4b, (E)-4-Methoxystilbene]
- Activity as inhibitor of TNFα-induced activation of NF-κB in the screen, in words [1]: especially active

Compound: CN(C)c1ccc(/C=C/c2ccccc2)cc1 [4cc, (E)-4-N,N-Dimethylaminostilbene]
- Inhibition of LPS-induced COX-2 mRNA, in words [2]: almost as effective as 4 μM resveratrol
- Anti-oxidant activity in the FRAP assay, in words [3]: retained anti-oxidant activity; also recorded: exhibits anti-oxidant activity
- IC50 [1, 10]: 150 nM
- Anti-oxidant activity in the TRAP assay, in words [4]: retained anti-oxidant activity; also recorded: exhibits anti-oxidant activity

Compound: COc1cccc(/C=C/c2ccccc2)c1OC [4o, (E)-2,3-Dimethoxystilbene]
- Activity as inhibitor of TNFα-induced activation of NF-κB in the screen, in words [1]: retained very little activity

Compound: COc1ccc(/C=C/c2ccccc2)cc1O [4s, (E)-3-Hydroxy-4-methoxystilbene]
- Activity as inhibitor of TNFα-induced activation of NF-κB in the screen, in words [1]: considerably more active than resveratrol

Compound: COc1ccc(/C=C/c2ccccc2)c(OC)c1 [4u, (E)-2,4-Dimethoxystilbene]
- Activity as inhibitor of TNFα-induced activation of NF-κB in the screen, in words [1]: especially active

Compound: COc1ccc(/C=C/c2ccc(OC)cc2)cc1 [6b, (E)-4,4′-Dimethoxystilbene]
- Activity as inhibitor of TNFα-induced activation of NF-κB in the screen, in words [1]: retained very little activity

Compound: COc1ccc(/C=C/c2ccc(C)cc2)cc1 [6d, (E)-4′-Methoxy-4-methylstilbene]
- IC50 [1, 10]: 900 ± 100 nM

Compound: COc1ccc(/C=C/c2cc(OC)cc(OC)c2)cc1 [6f, (E)-3,4′,5-Trimethoxystilbene]
- Activity as inhibitor of TNFα-induced activation of NF-κB in the screen, in words [1]: especially active
- IC50 ([5]; 24 h, read-out: IC50 for inhibition of the TPA-induced activation of AP-1): 3800 ± 1100 nM

Compound: COc1ccc(/C=C/c2cccc(Cl)c2)cc1 [6h, (E)-3-Chloro-4′-methoxystilbene]
- IC50 [1, 10]: 1000 ± 100 nM

Compound: COc1ccc(/C=C/c2cccc(C)c2)cc1 [6i, (E)-4′-Methoxy-3-methylstilbene]
- IC50 [1, 10]: 800 ± 200 nM

Compound: COc1ccc(/C=C/c2ccccc2Cl)cc1 [6j, (E)-2-Chloro-4′-methoxystilbene]
- IC50 [1, 10]: 1500 ± 30 nM

Compound: COc1ccc(/C=C/c2cccc(OC)c2OC)cc1 [6o, (E)-2,3,4′-Trimethoxystilbene]
- Activity as inhibitor of TNFα-induced activation of NF-κB in the screen, in words [1]: especially active

Compound: COc1ccc(/C=C/c2ccccc2F)cc1 [6p, (E)-2-Fluoro-4′-methoxystilbene]
- Inhibition of LPS-induced COX-2 mRNA, in words [2]: almost as effective as 4 μM resveratrol
- Anti-oxidant activity in the FRAP assay, in words [3]: does not exhibit anti-oxidant activity
- IC50 [1, 10]: 150 nM
- Anti-oxidant activity in the TRAP assay, in words [4]: does not exhibit anti-oxidant activity
- Ability to prevent brain inflammation and plaque accumulation [6]: effective
- outcome ([7]; atopy/ears, 1% lotion): positive
- outcome ([7]; squamous cell carcinoma, 1% lotion): positive
- Time for redness to disappear ([7]; animal 255, severe allergies, ears and face, applied twice a day): ≤ 24 h
- Inflammatory component of pathology (redness/itching, discomfort) ([7]; cats, 1% lotion): marked improvement
- outcome ([8]; K9, Pempigus, 1% lotion): positive
- outcome ([8]; K9, atopy, 1% lotion): positive
- outcome ([8]; K9, hemangiosarcoma, 1% lotion): positive
- outcome ([8]; K9, hot spot, 1% lotion): positive
- outcome ([8]; K9, peri-analfistual, 1% lotion): positive
- Nasal planum lesion after treatment ([8]; animal 1139, daily application, after 10 applications): the region was healing, the dried, flaking skin was gone and there was no bleeding
- Peri-anal fistula healing ([8]; animal 3688, LD55 with combinations of standard forms of treatment, two weeks): nearly resulted in the fistula healing and closing
- Inflammatory component of pathology (redness/itching, discomfort) ([8]; dogs, 1% lotion, all treated animals except two dogs with unknown outcome): marked improvement

Compound: COc1ccc(/C=C/c2cccc(OC)c2)cc1 [6r, (E)-3,4′-Dimethoxystilbene]
- IC50 [1, 10]: 600 ± 100 nM
- Activity as inhibitor of TNFα-induced activation of NF-κB in the screen, in words [1]: especially active; also recorded: highly active

Compound: COc1ccc(/C=C/c2ccc(O)c(O)c2)cc1 [6x, (E)-3,4-Dihydroxy-4′-methoxystilbene]
- IC50 [1, 10]: 600 ± 400 nM
- Activity as inhibitor of TNFα-induced activation of NF-κB in the screen, in words [1]: considerably more active than resveratrol

Compound: O=C(/C=C/c1ccncc1)/C=C/c1ccncc1 [reference compound]
- IC50 ([1]; TNFα-induced activation of NF-κB, Panomics reporter screening cells, read-out: NFκB IC50 (Tables 1A and 2A)): 3900 ± 300 nM
- IC50 ([5]; AP1, TPA-induced activation of AP-1, Panomics reporter screening cells, read-out: AP-1 IC50 (Tables 1A and 2A)): 8200 ± 300 nM

Compound: Oc1ccc(/C=C/c2cc(O)cc(O)c2)cc1 [resveratrol, 3,4′,5-trihydroxystilbene, reference compound]
- Inhibition of LPS-induced COX-2 mRNA ([2]; 4 μM): about 50%
- Suppression of LPS-induced COX-2 mRNA ([2]; 20 μM): markedly suppressed
- IC50 [1, 10]: 20000 ± 3000 nM
- Effect on TPA-induced AP-1 activation, in words ([5]; 293T/AP-1-luc cells, TPA 10 ng/ml, 24 hours): activated

Compound: C(=Cc1ccccc1)c1ccccc1 [stilbene]
- Inhibition of TNF-induced activation of NF-κB [9]: inactive
